Results taken from patent US10851064B2, “ACSS2 inhibitors and methods of use thereof” (METABOMED LTD., priority 2017, dated 2020).
“And” between values parts separate entries of the source, which are not always exact repeats. Equal values may be shown once.

Key:
ACSS2 [1] = target: T1, ACSS2 (Homo sapiens, UniProt Q9NR19); experiment: cell-based
Experimental: (§1) ACSS2 Cellular Activity Assay (Cellular IC50)
(§2) The cellular activity of ACSS2 was based on tracing the incorporation of carbons from ^13C-Acetate into fatty-acids.
(§3) BT474/MDA-MB-468 cells growing in DMEM+25 mM D-glucose+1 mM sodium pyruvate+10% FBS+2 mM glutamine were plated in 12-well plates at 0.4×10^6 cells/well. The cells were then incubated at CO2 incubator for 24 hrs at hypoxic conditions (1% O2) before treated with compounds. At day 2, the medium was replaced to DMEM medium containing 15 mM Glucose, 1 mM Pyruvate, 0.65 mM Glutamine, 1% Dialyzed serum, 3.5 ug/ml Biotin, 0.2 mM ^13C-Acetate and various concentrations of the compounds. The cells were incubated for 5 hours at CO2 incubator in hypoxic conditions (1% O2). At the end of the 5 hours' incubation, the cells were washed twice with cold PBS, harvested in 1 ml PBS and transfer into V-shaped HPLC glass vials and centrifuge for 10 min at 600 g at 4 C. The supernatant was removed, and the cells' pellets were stored at −80° C. until taken for saponification.
(§4) The cells pellets were resuspended with 0.5 ml of the 90% Methanol, 10% H2O, 0.3M NaOH mixture and incubated at 80° C. for 60 min. Following the incubation, 50 μl formic acid and 0.4 ml hexane were added and the mixture was vortexed for 2 minutes. The vials were left few minutes for phases separation and then 200 μl of the top hexane phase extracted to a new glass vial. The hexane was dried under nitrogen and reconstituted in 100 μl of Methanol:Acetonitrile 5:3 mixture. The solution transferred to Eppendorf tubes, spun down at 17000 G for 20 min and transferred to LC-MS vials.
(§5) The analysis was performed with Thermo Q Exactive mass spectrometer with HESI probe and Dionex Ultimate 3000 UHPLC system. The separations were performed on Phenomenex Kintex 2.6u XB-C18 100A 150×2.10 mm column by injecting 5 ul of each sample. The chromatography started with a linear gradient from 85% to 100% of organic solvent (Methanol:Acetonitrile 1:1) versus 10 mM Ammonium Acetate buffer pH 4.7 for 3.5 minutes, followed by 4.5 minutes of isocratic 100% organic solvent and then 3 minutes of isocratic initial conditions, at a flow rate of 0.3 ul/min. The MS source conditions that were used: capillary temperature 325° C., sheath flow 25, aux flow 15, spray voltage 3.8 kV, aux temperature 300° C. The data collected from Negative ion mode at resolution of 70000 at Full-MS mode in 75-1000 m/z range.
(§6) The analysis of ^13C acetate incorporation into fatty acids (palmitate, myristate and stearate) performed on TraceFinder 3.2.512.0. The negative control areas and ^13C isotopic theoretical natural abundance were subtracted from the samples areas. Total ^13C incorporation for each fatty-acid (palmitate, myristate and stearate) was calculated and presented as percentage of the total amount.

ACSS2 [2] = target: T1, ACSS2; experiment: biochemical
ACSS2 [3] = target: T1, ACSS2; experiment: cell-based; remark: listed apart in the source
Experimental: Testing the inhibitory effect of compounds on the cellular activity of ACSS2 was done by tracing the incorporation of ^13C from ^13C-acetate into fatty-acids in MDA-MB-468 cells under hypoxic conditions of 1% 02. The assay was done for 5 hours in DMEM with 5.5 mM glucose, 1 mM sodium Pyruvate, 0.65 mM Glutamine, 3.5 ug/ml Biotin, 1% dialyzed serum, 0.5 mM 13C-acetate and with different concentrations of the inhibitors. At the end of the incubation, the cells were washed with cold PBS, harvested into glass tubes and undergo saponification. The level of ^13C incorporation into Palmitate was done by LC-MS analysis and the level of inhibition was calculated with PRISM software.

ACSS2 [4] = target: T1, ACSS2; experiment: cell-based; remark: listed apart in the source
Experimental: as §1, §2, §3, §4, §5, §6

T1 sequence (Q9NR19 whole entry): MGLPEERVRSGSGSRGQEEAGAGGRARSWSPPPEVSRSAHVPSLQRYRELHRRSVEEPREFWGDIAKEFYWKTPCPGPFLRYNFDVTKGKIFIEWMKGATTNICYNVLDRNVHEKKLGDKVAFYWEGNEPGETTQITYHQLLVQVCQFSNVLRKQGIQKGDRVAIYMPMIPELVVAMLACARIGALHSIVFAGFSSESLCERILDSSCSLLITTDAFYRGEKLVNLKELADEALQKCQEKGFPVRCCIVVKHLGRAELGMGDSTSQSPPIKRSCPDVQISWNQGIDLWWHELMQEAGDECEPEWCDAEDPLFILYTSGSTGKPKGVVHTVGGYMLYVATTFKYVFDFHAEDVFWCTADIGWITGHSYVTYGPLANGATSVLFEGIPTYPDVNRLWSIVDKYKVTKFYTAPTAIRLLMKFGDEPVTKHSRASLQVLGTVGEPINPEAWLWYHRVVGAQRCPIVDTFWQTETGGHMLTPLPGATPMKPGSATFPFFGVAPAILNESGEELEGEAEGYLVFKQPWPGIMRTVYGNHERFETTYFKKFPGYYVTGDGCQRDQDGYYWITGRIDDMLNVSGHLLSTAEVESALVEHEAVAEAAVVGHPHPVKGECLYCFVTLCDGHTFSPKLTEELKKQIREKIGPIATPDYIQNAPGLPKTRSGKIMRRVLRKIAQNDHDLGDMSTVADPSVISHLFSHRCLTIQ

SMILES	IC50 (ACSS2 [1])	IC50 (ACSS2 [2])	IC50 (ACSS2 [3])	IC50 (ACSS2 [4])
CC1=NN(c2cccc(C(=O)O)c2)C(=O)C1C(=O)Nc1cccc(-c2ccco2)c1 (stereo not drawn) [compound 159, 3-(4-((3-(furan-2-yl)phenyl)carbamoyl)-3-methyl-5-oxo-4,5-dihydro-1H-pyrazol-1-yl)benzoic acid]	≥ 1000 nM	6 to 100 nM	> 100 nM	–
CCC(=O)c1cccc(NC(=O)C2C(=O)N(c3ccccc3)N=C2C)c1 (stereo not drawn) [compound 117, 3-methyl-5-oxo-1-phenyl-N-(3-propionylphenyl)-4,5-dihydro-1H-pyrazole-4-carboxamide]	–	0.01 to 6 nM	0.5 to 50 nM	< 100 nM and 100 to 1000 nM
CC1=NN(c2ccccc2)C(=O)C1C(=O)Nc1cccc(-c2ncco2)c1 (stereo not drawn) [compound 124, 3-methyl-N-(3-(oxazol-2-yl)phenyl)-5-oxo-1-phenyl-4,5-dihydro-1H-pyrazole-4-carboxamide]	100 to 1000 nM	6 to 100 nM	> 100 nM	100 to 1000 nM
CCc1cccc(NC(=O)C2C(=O)N(c3ccccc3)N=C2C)c1 (stereo not drawn) [compound 184, N-(3-ethylphenyl)-3-methyl-5-oxo-1-phenyl-4,5-dihydro-1H-pyrazole-4-carboxamide]	–	6 to 100 nM	–	100 to 1000 nM
CCCC(=O)c1cccc(NC(=O)C2C(=O)N(c3ccccc3)N=C2C)c1 (stereo not drawn) [compound 114, N-(3-butyrylphenyl)-3-methyl-5-oxo-1-phenyl-4,5-dihydro-1H-pyrazole-4-carboxamide]	–	6 to 100 nM	–	≥ 1000 nM and 100 to 1000 nM
CC1=NN(c2cccc(C(F)(F)F)c2)C(=O)C1C(=O)Nc1cccc(-c2cnccn2)c1 (stereo not drawn) [compound 166, 3-methyl-5-oxo-N-(3-(pyrazin-2-yl)phenyl)-1-(3-(trifuoromethyl)phenyl)-4,5-dihydro-1H-pyrazole-4-carboxamide]	< 100 nM (2×) and 100 nM to 1 µM	0.01 to 6 nM	> 100 nM	–
CCc1cccc(NC(=O)C2C(=O)N(c3ccc4c(c3)OCO4)N=C2C)c1 (stereo not drawn) [compound 168]	100 to 1000 nM	6 to 100 nM	0.5 to 50 nM	–
COc1ccc(N2N=C(C)C(C(=O)Nc3cccc(C(C)(F)F)c3)C2=O)cc1OC (stereo not drawn) [compound 287]	–	0.01 to 6 nM	0.5 to 50 nM	–
CC1=NN(c2ccccc2)C(=O)C1C(=O)Nc1cccc(C2CC2)c1 (stereo not drawn) [compound 119, N-(3-cyclopropylphenyl)-3-methyl-5-oxo-1-phenyl-4,5-dihydro-1H-pyrazole-4-carboxamide]	–	0.01 to 6 nM	0.5 to 50 nM	100 to 1000 nM
CC1=NN(c2ccc(OC(F)(F)F)c(-c3ncco3)c2)C(=O)C1C(=O)Nc1cccc(-c2ccco2)c1 (stereo not drawn) [compound 292]	–	0.01 to 6 nM	0.5 to 50 nM	–
CC1=NN(c2cccc(C(=O)O)c2)C(=O)C1C(=O)Nc1cccc(-c2cnccn2)c1 (stereo not drawn) [compound 169]	≥ 1000 nM	6 to 100 nM	> 100 nM	–
COc1ccc(N2N=C(C)C(C(=O)Nc3cccc(-c4ccco4)c3)C2=O)cc1 (stereo not drawn) [compound 266]	–	0.01 to 6 nM	0.5 to 50 nM	–
CC1=NN(c2cccc(C(F)(F)F)c2)C(=O)C1C(=O)Nc1cccc(-c2ncco2)c1 (stereo not drawn) [compound 257]	–	6 to 100 nM	> 100 nM	–
COc1ccc(N2N=C(C)C(C(=O)Nc3cccc(-c4ncc[nH]4)c3)C2=O)cn1 (stereo not drawn) [compound 244]	–	6 to 100 nM	> 100 nM	–
COc1ccc(N2N=C(C)C(C(=O)Nc3cccc(-c4ccco4)c3)C2=O)cn1 (stereo not drawn) [compound 246]	–	0.01 to 6 nM	0.5 to 50 nM	–
COc1cccc(N2N=C(C)C(C(=O)Nc3cccc(C(C)(F)F)c3)C2=O)c1 (stereo not drawn) [compound 250]	–	0.01 to 6 nM	0.5 to 50 nM	–
CC1=NN(c2cccc(C(=O)OC(C)C)c2)C(=O)C1C(=O)Nc1cccc(C(C)(F)F)c1 (stereo not drawn) [compound 236]	–	0.01 to 6 nM	0.5 to 50 nM	–
COC(=O)c1cccc(N2N=C(C)C(C(=O)Nc3cccc(-c4ncco4)c3)C2=O)c1 (stereo not drawn) [compound 259]	–	6 to 100 nM	> 100 nM	–
COC(=O)c1cccc(N2N=C(C)C(C(=O)Nc3cccc(-c4ccco4)c3)C2=O)c1 (stereo not drawn) [compound 269]	–	0.01 to 6 nM	0.5 to 50 nM	–
COc1ccc(N2N=C(C)C(C(=O)Nc3cccc(C(C)(F)F)c3)C2=O)cc1C (stereo not drawn) [compound 303]	–	0.01 to 6 nM	0.5 to 50 nM	–
CC1=NN(c2ccc(OC(F)F)cc2)C(=O)C1C(=O)Nc1cccc(C(C)(F)F)c1 (stereo not drawn) [compound 298]	–	0.01 to 6 nM	0.5 to 50 nM	–
CC1=NN(c2cccc(-c3ncco3)c2)C(=O)C1C(=O)Nc1cccc(C(C)(F)F)c1 (stereo not drawn) [compound 230]	–	0.01 to 6 nM	0.5 to 50 nM	–
CC1=NN(c2cccc(C(=O)O)c2)C(=O)C1C(=O)Nc1cccc(C(C)(F)F)c1 (stereo not drawn) [compound 258]	–	0.01 to 6 nM	> 100 nM	–
COc1ccc(N2N=C(C)C(C(=O)Nc3cccc(-c4cnccn4)c3)C2=O)cc1 (stereo not drawn) [compound 241]	–	0.01 to 6 nM	50 to 100 nM	–
CC1=NN(c2ccc(S(=O)(=O)N(C)C)cc2)C(=O)C1C(=O)Nc1cccc(C(C)(F)F)c1 (stereo not drawn) [compound 253]	–	0.01 to 6 nM	0.5 to 50 nM	–

SMILES	IC50 (ACSS2 [1])	IC50 (ACSS2 [2])	IC50 (ACSS2 [3])	IC50 (ACSS2 [4])
CC1=NN(c2cccc(C(F)(F)F)c2)C(=O)C1C(=O)Nc1cccc(-c2ncc[nH]2)c1 (stereo not drawn) [compound 149, N-(3-(1H-imidazol-2-yl)phenyl)-3-methyl-5-oxo-1-(3-(trifluoromethyl)phenyl)-4,5-dihydro-1H-pyrazole-4-carboxamide]	–	6 to 100 nM	> 100 nM	–
CC1=NN(c2cccc(C(=O)OC(C)C)c2)C(=O)C1C(=O)Nc1cccc(-c2ncc[nH]2)c1 (stereo not drawn) [compound 235]	–	6 to 100 nM	> 100 nM	–
CC1=NN(c2cccc(-c3ncco3)c2)C(=O)C1C(=O)Nc1cccc(-c2ccco2)c1 (stereo not drawn) [compound 228]	–	0.01 to 6 nM	0.5 to 50 nM	–
CCc1cccc(NC(=O)C2C(=O)N(c3ccc(OC)cc3)N=C2C)c1 (stereo not drawn) [compound 138, N-(3-ethylphenyl)-1-(4-methoxyphenyl)-3-methyl-5-oxo-4,5-dihydro-1H-pyrazole-4-carboxamide]	–	6 to 100 nM	0.5 to 50 nM	100 to 1000 nM
CC1=NN(c2cccc(-c3nnc(C)o3)c2)C(=O)C1C(=O)Nc1cccc(C(C)(F)F)c1 (stereo not drawn) [compound 280]	–	0.01 to 6 nM	0.5 to 50 nM	–
CC1=NN(c2cccc(-c3ncco3)c2)C(=O)C1C(=O)Nc1cccc(-c2ncc[nH]2)c1 (stereo not drawn) [compound 279]	–	6 to 100 nM	> 100 nM	–
CC1=NN(c2ccc(-c3nnn[nH]3)cc2)C(=O)C1C(=O)Nc1cccc(C(C)(F)F)c1 (stereo not drawn) [compound 297]	–	0.01 to 6 nM	> 100 nM	–
COc1cccc(N2N=C(C)C(C(=O)Nc3cccc(-c4ccco4)c3)C2=O)c1 (stereo not drawn) [compound 247]	–	0.01 to 6 nM	0.5 to 50 nM	–
CC1=NN(c2ccccc2)C(=O)C1C(=O)Nc1cccc(C(F)(F)F)c1 (stereo not drawn) [compound 208, 3-methyl-5-oxo-1-phenyl-N-(3-(trifluoromethyl)phenyl)-4,5-dihydro-1H-pyrazole-4-carboxamide]	–	6 to 100 nM	> 100 nM	≥ 1000 nM and 100 to 1000 nM
COC(=O)c1cccc(NC(=O)C2C(=O)N(c3ccccc3)N=C2C)c1 (stereo not drawn) [compound 206, 3-(3-methyl-5-oxo-1-phenyl-4,5-dihydro-1H-pyrazole-4-carboxamido)benzoate]	–	0.01 to 6 nM	50 to 100 nM	100 to 1000 nM
CC1=NN(c2ccc(C(F)(F)F)cc2)C(=O)C1C(=O)Nc1cccc(C(C)(F)F)c1 (stereo not drawn) [compound 264]	–	0.01 to 6 nM	0.5 to 50 nM	–
CC1=NN(c2ccc(OC(F)(F)F)c(-c3ncco3)c2)C(=O)C1C(=O)Nc1cccc(C(C)(F)F)c1 (stereo not drawn) [compound 291]	–	0.01 to 6 nM	0.5 to 50 nM	–
CC1=NN(c2cccc(-c3ncco3)c2)C(=O)C1C(=O)Nc1cccc(-c2cnccn2)c1 (stereo not drawn) [compound 227]	–	0.01 to 6 nM	50 to 100 nM	–
CC1=NN(c2ccncc2)C(=O)C1C(=O)Nc1cccc(C(C)(F)F)c1 (stereo not drawn) [compound 231]	–	6 to 100 nM	> 100 nM	–
CC1=NN(c2ccccc2)C(=O)C1C(=O)Nc1cccc(Br)c1 (stereo not drawn) [compound 215, N-(3-bromophenyl)-3-methyl-5-oxo-1-phenyl-4,5-dihydro-1H-pyrazole-4-carboxamide]	–	6 to 100 nM	–	100 to 1000 nM
CC(=O)c1cccc(NC(=O)C2C(=O)N(c3ccccc3)N=C2C)c1 (stereo not drawn) [compound 183, N-(3-acetylphenyl)-3-methyl-5-oxo-1-phenyl-4,5-dihydro-1H yrazole-4-carboxamide]	–	6 to 100 nM	–	≥ 1000 nM
CC1=NN(c2cccc(C(F)(F)F)c2)C(=O)C1C(=O)Nc1cccc(-c2ccco2)c1 (stereo not drawn) [compound 165]	< 100 nM	0.01 to 6 nM	0.5 to 50 nM	–
COc1cccc(N2N=C(C)C(C(=O)Nc3cccc(-c4cnccn4)c3)C2=O)c1 (stereo not drawn) [compound 249]	–	0.01 to 6 nM	0.5 to 50 nM	–
CC1=NN(c2cccc(-c3ncc(C)o3)c2)C(=O)C1C(=O)Nc1cccc(C(C)(F)F)c1 (stereo not drawn) [compound 229]	–	0.01 to 6 nM	> 100 nM	–
[2H]C([2H])([2H])Oc1ccc(N2N=C(C)C(C(=O)Nc3cccc(C(C)(F)F)c3)C2=O)cc1 (stereo not drawn) [compound 286]	–	0.01 to 6 nM	0.5 to 50 nM	–
COc1ccc(N2N=C(C)C(C(=O)Nc3cccc(-c4ncc[nH]4)c3)C2=O)cc1 (stereo not drawn) [compound 255]	–	6 to 100 nM	> 100 nM	–
CC1=NN(c2ccccc2)C(=O)C1C(=O)Nc1cccc(-c2cnccn2)c1 (stereo not drawn) [compound 109, 3-methyl-5-oxo-1-phenyl-N-(3-(pyrazin-2-yl)phenyl)-4,5-dihydro-1H-pyrazole-4-carboxamide]	–	0.01 to 6 nM	50 to 100 nM	100 to 1000 nM
CC1=NN(c2cccc(-c3nccn3C)c2)C(=O)C1C(=O)Nc1cccc(C(C)(F)F)c1 (stereo not drawn) [compound 289]	–	0.01 to 6 nM	0.5 to 50 nM	–
COC(=O)c1cccc(N2N=C(C)C(C(=O)Nc3cccc(C(C)(F)F)c3)C2=O)c1 (stereo not drawn) [compound 261]	–	0.01 to 6 nM	0.5 to 50 nM	–
